Values of other authors as cited in US20050065134A1, “2-aklylidene-19-nor-vitamin D derivatives for the treatment of anorexia or low bone mass in females exhibiting aggressive athletic behavior” (Pfizer Inc, priority 2003, published 2005).
Where two headings read alike, the source gives them in different places.

System: intestinal calcium transport
Conditions: 7 days, rats

C=C1/C(=C\C=C2/CCC[C@]3(C)[C@@H]([C@H](C)CCCC(C)(C)O)CC[C@@H]23)C[C@@H](O)C[C@@H]1O [1,25-(OH)2D3, 1,25-dihydroxyvitamin D3, reference compound]
change in intestinal calcium transport (in words) (260 pmol/day, only dose tested): expected elevation of intestinal calcium transport

C=C1[C@H](O)CC(=C/C=C2\CCC[C@]3(C)[C@@H]([C@H](C)CCCC(C)(C)O)CC[C@@H]23)C[C@H]1O [2-Methylene-19-Nor-1,25-(OH)2D3, 1α,25-dihydroxy-2-methylene-19-nor-vitamin D3]
change in intestinal calcium transport (in words) (130 and 260 pmol/day): no intestinal calcium transport activity

C=C1[C@H](O)CC(=C/C=C2\CCC[C@]3(C)[C@@H]([C@@H](C)CCCC(C)(C)O)CC[C@@H]23)C[C@H]1O [2-Methylene-19-Nor-20S-1,25-(OH)2D3, (20S)-1α,25-dihydroxy-2-methylene-19-nor-vitamin D3]
change in intestinal calcium transport (in words) (130 and 260 pmol/day): no significant change
